This note sets out measurements from patent US11986532B2 (Arvinas Operations, Inc., priority 2021, dated 2024).

By DC50 is commonly meant the midpoint of the concentration-degradation curve. By Dmax is commonly meant the largest share of the target that was removed.

This experiment has as its target T1, BCL6 (Homo sapiens, UniProt P41182).
T1 construct: endogenous in cells; host or cells: T47D breast cancer epithelial cells
The experiment is described as follows: Immunofluorescence protocol for high content imaging of BCL6 (degradation) in T47D cells, 3 days compound treatment. The format is cell-based. To be noted: for DC50: read-out: Mean DC50 (nM)* category; for Dmax: T47D, read-out: Mean Dmax (%)** category. Summed up:
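High content immunofluorescence imaging (10×, 4 fields/well) of BCL6 using rabbit primary antibody, Alexa-488 secondary, cell mask and Hoechst nuclear stain after PFA fixation. Before staining, T47D cells (7K/well) were exposed for 3 days at 37° C to 3-fold serial dilutions of compound, top final concentration 0.1 or 1 μM.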

On to `CNC(=O)COc1cc2cc(Nc3nc(N4CCC(O[C@H]5C[C@H](N6C[C@@H](C)N(c7ccc8c(c7)C(=O)N(C7CCC(=O)NC7=O)C8=O)[C@@H](C)C6)C5)CC4)ncc3Cl)ccc2n(C(C)C)c1=O` (stereo partly drawn) [Compound 244, 2-({6-[(5-chloro-2-{4-[(1r,3r)-3-[(3R,5S)-4-[2-(2,6-dioxopiperidin-3-yl)-1,3-dioxo-2,3-dihydro-1H-isoindol-5-yl]-3,5-dimethylpiperazin-1-yl]cyclobutoxy]piperidin-1-yl}pyrimidin-4-yl)amino]-2-oxo-1-(propan-2-yl)-1,2-dihydroquinolin-3-yl}oxy)-N-methylacetamide], for which the “Mean Dmax (%)** category” value is listed as “A (A >= 70)” and the DC50 was 10 to 50 nM.

For the molecule `CNC(=O)COc1cc2cc(Nc3nc(N4CCC(O[C@H]5C[C@H](N6C[C@@H](C)N(c7ccc8c(c7)C(=O)N(C7CCC(=O)NC7=O)C8=O)[C@H](C)C6)C5)CC4)ncc3Cl)ccc2n(C(C)C)c1=O` (stereo partly drawn) [Compound 245, 2-({6-[(5-chloro-2-{4-[(1r,3r)-3-[(3R,5R)-4-[2-(2,6-dioxopiperidin-3-yl)-1,3-dioxo-2,3-dihydro-1H-isoindol-5-yl]-3,5-dimethylpiperazin-1-yl]cyclobutoxy]piperidin-1-yl}pyrimidin-4-yl)amino]-2-oxo-1-(propan-2-yl)-1,2-dihydroquinolin-3-yl}oxy)-N-methylacetamide], the Dmax is at least 70% and the DC50 was 10 to 50 nM.

As for `CNC(=O)COc1cc2cc(Nc3nc(N4CCC(O[C@H]5C[C@H](N6C[C@H](C)N(c7ccc8c(c7)C(=O)N(C7CCC(=O)NC7=O)C8=O)[C@@H](C)C6)C5)CC4)ncc3Cl)ccc2n(C(C)C)c1=O` (stereo partly drawn) [Compound 246, 2-({6-[(5-chloro-2-{4-[(1r,3r)-3-[(3S,5S)-4-[2-(2,6-dioxopiperidin-3-yl)-1,3-dioxo-2,3-dihydro-1H-isoindol-5-yl]-3,5-dimethylpiperazin-1-yl]cyclobutoxy]piperidin-1-yl}pyrimidin-4-yl)amino]-2-oxo-1-(propan-2-yl)-1,2-dihydroquinolin-3-yl}oxy)-N-methylacetamide], the Dmax was in the range of 50 to 70% and the DC50 is below 10 nM.

For `CNC(=O)COc1cc2c(F)c(Nc3cc(N4CCN(CC5CCC6(CC5)CN(c5cccc7c5C(=O)N(C5CCC(=O)NC5=O)C7=O)C6)CC4)ncc3Cl)ccc2n(C(C)C)c1=O` (stereo not shown) [Compound 247, 2-{[6-({5-chloro-2-[4-({2-[2-(2,6-dioxopiperidin-3-yl)-1,3-dioxo-2,3-dihydro-1H-isoindol-4-yl]-2-azaspiro[3.5]nonan-7-yl}methyl)piperazin-1-yl]pyridin-4-yl}amino)-5-fluoro-2-oxo-1-(propan-2-yl)-1,2-dihydroquinolin-3-yl]oxy}-N-methylacetamide], the Dmax was at least 70% and the DC50 was below 10 nM.

On to `CNC(=O)COc1cc2cc(Nc3nc(N4CCC(O[C@H]5C[C@H](N6[C@H](C)CN(c7ccc8c(c7)C(=O)N(C7CCC(=O)NC7=O)C8=O)C[C@@H]6C)C5)CC4)ncc3Cl)ccc2n(C(C)C)c1=O` (stereo partly drawn) [Compound 248, 2-[[6-[[5-chloro-2-[4-[3-[(2R,6S)-4-[2-(2,6-dioxo-3-piperidyl)-1,3-dioxo-isoindolin-5-yl]-2,6-dimethyl-piperazin-1-yl]cyclobutoxy]-1-piperidyl]pyrimidin-4-yl]amino]-1-isopropyl-2-oxo-3-quinolyl]oxy]-N-methyl-acetamide], for which the maximal degradation (Dmax) was in the range of 50 to 70% and the DC50 is below 10 nM.

As to `CNC(=O)COc1cc2cc(Nc3nc(N4CCC(O[C@H]5C[C@H](N6[C@H](C)CN(c7ccc8c(c7)C(=O)N(C7CCC(=O)NC7=O)C8=O)C[C@H]6C)C5)CC4)ncc3Cl)ccc2n(C(C)C)c1=O` (stereo partly drawn) [Compound 249, 2-({6-[(5-chloro-2-{4-[(1r,3r)-3-[(2R,6R)-4-[2-(2,6-dioxopiperidin-3-yl)-1,3-dioxo-2,3-dihydro-1H-isoindol-5-yl]-2,6-dimethylpiperazin-1-yl]cyclobutoxy]piperidin-1-yl}pyrimidin-4-yl)amino]-2-oxo-1-(propan-2-yl)-1,2-dihydroquinolin-3-yl}oxy)-N-methylacetamide], the Dmax is below 50% and the DC50 fell in the range of 10 to 50 nM.

In the case of `CNC(=O)COc1cc2cc(Nc3nc(N4CCC(O[C@H]5C[C@H](N6[C@H](C)CN(c7ccc8c(c7)CN(C7CCC(=O)NC7=O)C8=O)C[C@H]6C)C5)CC4)ncc3Cl)ccc2n(C(C)C)c1=O` (stereo partly drawn) [Compound 250, 2-({6-[(5-chloro-2-{4-[(1r,3r)-3-[(2R,6R)-4-[2-(2,6-dioxopiperidin-3-yl)-1-oxo-2,3-dihydro-1H-isoindol-5-yl]-2,6-dimethylpiperazin-1-yl]cyclobutoxy]piperidin-1-yl}pyrimidin-4-yl)amino]-2-oxo-1-(propan-2-yl)-1,2-dihydroquinolin-3-yl}oxy)-N-methylacetamide], the Dmax lay in the range of 50 to 70% and the DC50 is below 10 nM.

On to `CNC(=O)COc1cc2c(F)c(Nc3cc(N4CCC(CN5CCC6(CN(c7ccc8c(c7)CN(C7CCC(=O)NC7=O)C8=O)C6)C(F)(F)C5)CC4)ncc3Cl)ccc2n(C(C)C)c1=O` (stereo not shown) [Compound 251, 2-{[6-({5-chloro-2-[4-({2-[2-(2,6-dioxopiperidin-3-yl)-1-oxo-2,3-dihydro-1H-isoindol-5-yl]-5,5-difluoro-2,7-diazaspiro[3.5]nonan-7-yl}methyl)piperidin-1-yl]pyridin-4-yl}amino)-5-fluoro-2-oxo-1-(propan-2-yl)-1,2-dihydroquinolin-3-yl]oxy}-N-methylacetamide], for which the Dmax was at least 70% and the DC50 is below 10 nM.

Turning to `CNC(=O)COc1cc2c(F)c(Nc3cc(N4CCC(CN5CCC6(CN(c7ccc8c(c7F)CN(C7CCC(=O)NC7=O)C8=O)C6)C(F)(F)C5)CC4)ncc3Cl)ccc2n(C(C)C)c1=O` (stereo not shown) [Compound 252, 2-{[6-({5-chloro-2-[4-({2-[2-(2,6-dioxopiperidin-3-yl)-4-fluoro-1-oxo-2,3-dihydro-1H-isoindol-5-yl]-5,5-difluoro-2,7-diazaspiro[3.5]nonan-7-yl}methyl)piperidin-1-yl]pyridin-4-yl}amino)-5-fluoro-2-oxo-1-(propan-2-yl)-1,2-dihydroquinolin-3-yl]oxy}-N-methylacetamide], the Dmax lay in the range of 50 to 70% and the 50% degradation concentration (DC50) is below 10 nM.

For the molecule `CNC(=O)COc1cc2cc(Nc3nc(N4CCC(O[C@H]5C[C@H](N6[C@@H](C)CN(c7ccc8c(c7)C(=O)N(C7CCC(=O)NC7=O)C8=O)C[C@@H]6C)C5)CC4)ncc3Cl)ccc2n(C(C)C)c1=O` (stereo partly drawn) [Compound 253, 2-({6-[(5-chloro-2-{4-[(1r,3r)-3-[(2S,6S)-4-[2-(2,6-dioxopiperidin-3-yl)-1,3-dioxo-2,3-dihydro-1H-isoindol-5-yl]-2,6-dimethylpiperazin-1-yl]cyclobutoxy]piperidin-1-yl}pyrimidin-4-yl)amino]-2-oxo-1-(propan-2-yl)-1,2-dihydroquinolin-3-yl}oxy)-N-methylacetamide], the Dmax was at least 70% and the DC50 fell in the range of 10 to 50 nM.

Consider `CNC(=O)COc1cc2cc(Nc3nc(N4CCC(O[C@H]5C[C@H](N6[C@@H](C)CN(c7ccc8c(c7)CN(C7CCC(=O)NC7=O)C8=O)C[C@@H]6C)C5)CC4)ncc3Cl)ccc2n(C(C)C)c1=O` (stereo partly drawn) [Compound 254, 2-({6-[(5-chloro-2-{4-[(1r,3r)-3-[(2S,6S)-4-[2-(2,6-dioxopiperidin-3-yl)-1-oxo-2,3-dihydro-1H-isoindol-5-yl]-2,6-dimethylpiperazin-1-yl]cyclobutoxy]piperidin-1-yl}pyrimidin-4-yl)amino]-2-oxo-1-(propan-2-yl)-1,2-dihydroquinolin-3-yl}oxy)-N-methylacetamide], for which the greatest degradation seen (Dmax) was at least 70% and the DC50 is below 10 nM.

As to `CNC(=O)COc1cc2cc(Nc3nc(N4CCC(CN5[C@@H](C)CC6(C[C@@H]5C)CN(c5ccc7c(c5)C(=O)N(C5CCC(=O)NC5=O)C7=O)C6)CC4)ncc3Cl)ccc2n(C(C)C)c1=O` (stereo partly drawn) [Compound 255, 2-[(6-{[5-chloro-2-(4-{[(6S,8S)-2-[2-(2,6-dioxopiperidin-3-yl)-1,3-dioxo-2,3-dihydro-1H-isoindol-5-yl]-6,8-dimethyl-2,7-diazaspiro[3.5]nonan-7-yl]methyl}piperidin-1-yl)pyrimidin-4-yl]amino}-2-oxo-1-(propan-2-yl)-1,2-dihydroquinolin-3-yl)oxy]-N-methylacetamide], the Dmax fell in the range of 50 to 70% and the DC50 is below 10 nM.

On to `CNC(=O)COc1cc2cc(Nc3nc(N4CCC(O[C@H]5C[C@H](N6CCC(c7ccc8c(c7)C(=O)N(C7CCC(=O)NC7=O)C8=O)C6)C5)CC4)ncc3Cl)ccc2n(C(C)C)c1=O` (stereo partly shown) [Compound 256, 2-({6-[(5-chloro-2-{4-[(1r,3r)-3-{3-[2-(2,6-dioxopiperidin-3-yl)-1,3-dioxo-2,3-dihydro-1H-isoindol-5-yl]pyrrolidin-1-yl}cyclobutoxy]piperidin-1-yl}pyrimidin-4-yl)amino]-2-oxo-1-(propan-2-yl)-1,2-dihydroquinolin-3-yl}oxy)-N-methylacetamide], for which the Dmax was 50 to 70% and the DC50 was in the range of 10 to 50 nM.

On to `CNC(=O)COc1cc2cc(Nc3cc(N4CCC(F)(CN5CCC6(CC5)CN(c5ccc7c(c5F)CN(C5CCC(=O)NC5=O)C7=O)C6(C)C)CC4)ncc3Cl)ccc2n(C(C)C)c1=O` (stereo not shown) [Compound 257, 2-{[6-({5-chloro-2-[4-({2-[2-(2,6-dioxopiperidin-3-yl)-4-fluoro-1-oxo-2,3-dihydro-1H-isoindol-5-yl]-1,1-dimethyl-2,7-diazaspiro[3.5]nonan-7-yl}methyl)-4-fluoropiperidin-1-yl]pyridin-4-yl}amino)-2-oxo-1-(propan-2-yl)-1,2-dihydroquinolin-3-yl]oxy}-N-methylacetamide], for which the Dmax was 50 to 70% and the DC50 is below 10 nM.
